The source of these data is patent US5385842A, “Anthraquinones as inhibitors of sulfide production from sulfate-reducing bacteria” (E. I. Du Pont de Nemours and Company, priority 1993, dated 1995).

Structures can show the parent of a compound that is named as a salt.

For one experiment, the system named is Desulfovibrio desulfuricans G100A. Briefly: microbe, parasite or virus in culture. It is filed as cell-based.
Conditions: not given
In the case of `Nc1cccc2c1C(=O)c1ccccc1C2=O` [1-Aminoanthraquinone], the “inhibition of sulfide production (in words)” value is “inhibited sulfide formation”.

Still in this experiment, the particulars now being: 10 ppm.
With “1,1'-Iminobis[4-amino]9,10-anthracenedione, sulfonated [Acid black 48]”, the “% Inhib. (inhibition of sulfide production)” value is reported as 13.8%.

As to “1-Amino-4[4-[[4-chloro-6-[2,3 or 4-sulfophenyl]-amino]-1,3,5-triazin-2-yl]amino]-3-sulfophenyl]-amino]-9,10-dihyro-9,10-dioxo-2-anthracenesulfonic acid [Reactive blue 2]”, the “% Inhib. (inhibition of sulfide production)” value turned out to be 17.5%.

Still in this experiment, the particulars now being: Desulfovibrio desulfuricans, G100A, read-out: % Inhib. (inhibition of sulfide production).
One may read the inhibition as the percentage by which the read-out fell short of the control. As to `O=C1c2c(O)c(O)c(S(=O)(=O)O)c(O)c2C(=O)c2c(O)c(O)c(S(=O)(=O)O)c(O)c21` [Acid alizarin blue BB, 9,10-Dihydro-1,3,4,5,7,8-hexahydroxy-9,10-dioxo-2,6-anthracenedisulfonic acid], the inhibition at 30 ppm worked out at 0%.

In the case of `CC(C)Nc1ccc(NC(C)C)c2c1C(=O)c1ccccc1C2=O` [1,4-Di(isopropylamino)anthraquinone, 1,4-Bis[(1-methylethyl)amino]-9,10-anthracenedione], the inhibition at 30 ppm came to 5%.

In the case of `O=C1c2ccc(O)cc2C(=O)c2c1cc(S(=O)(=O)O)c(O)c2O` [Alizarin rubinol, 9,10-Dihydro-3,4,6-trihydroxy-9,10-dioxo-2-anthracenesulfonic acid], the inhibition at 30 ppm worked out at 0%.

For `CC(C)(C)c1ccc2c(c1)C(=O)c1ccccc1C2=O` [2-tert-butylanthraquinone], the inhibition at 30 ppm came out at 5.2%.

Turning to `Nc1ccc(N)c2c1C(=O)c1cccc([N+](=O)[O-])c1C2=O` [1,4-Diamino-5-nitroanthraquinone], the inhibition at 30 ppm lay in the range of 2.7 to 3%.

Take `O=C1c2cccc(S(=O)(=O)O)c2C(=O)c2cccc(S(=O)(=O)O)c21` [Anthraquinone-1,5-disulfonic acid di Na salt hydrate]: the inhibition at 10 ppm came to 17.5%.

As to `O=C1c2ccccc2C(=O)c2c(Nc3ccc(S(=O)(=O)O)cc3)c(Nc3ccc(S(=O)(=O)O)cc3)cc(O)c21` [Alizarin blue black B, 1,2-Bis[(4-sulfophenyl)amino]-4-hydroxy-anthraquinone], the inhibition at 10 ppm came to 17.5%.

For `O=C1c2ccccc2C(=O)c2c(O)ccc(O)c21` [1,4-Dihydroxyanthraquinone], the inhibition at 30 ppm is 5.2%.

For `CC(=O)N(C)c1ccc(Nc2cc(S(=O)(=O)O)c(N)c3c2C(=O)c2ccccc2C3=O)cc1` [Acid blue 41, 4-[[4-(Acetylmethylamino)phenyl]amino]-1-amino-9,10-dihydro-9,10-dioxo-2-anthracenesulfonic acid, Na salt], the inhibition at 10 ppm is 0%.

As for `O=C1c2ccccc2C(=O)c2cc(NC(=O)C3CC3)ccc21` [2-(Cyclopropylcarboxamido)anthraquinone], the inhibition at 30 ppm was 2.6%.

With `CNc1ccc(N)c2c1C(=O)c1ccccc1C2=O` [1-Amino-4-(methylamino)anthraquinone], the inhibition at 30 ppm amounted to 0%.

As for `Nc1ccc(N)c2c1C(=O)c1ccccc1C2=O` [1,4-Diaminoanthraquinone], the inhibition at 10 ppm was 27.5%.

`Nc1c(Br)cc(O)c2c1C(=O)c1ccccc1C2=O` [1-Amino-2-bromo-4-hydroxyanthraquinone]: the inhibition at 30 ppm was 6.5%.

For the compound `Cc1cc(Br)c2c(c1N)C(=O)c1ccccc1C2=O` [1-Amino-4-bromo-2-methylanthraquinone], the inhibition at 10 µg/mL was 8%.

As for `COc1cccc2c1C(=O)c1c(O)c3c(c(O)c1C2=O)C[C@@](O)(C(C)=O)C[C@@H]3O[C@H]1C[C@H](N)[C@H](O)[C@H](C)O1` [Daunomycin hydrochloride, (8S-cis)-8-Acetyl-10[(3-amino-2,3,6-trideoxy-alpha-L-lyxo-hexopyranosyl)oxy]-7,8,9,10-tetrahydro-6,8,11-trihydroxy-1-methoxy-5,12-naphthacenedione hydrochloride, reference compound], the inhibition at 30 ppm came to 62.9%.

In the case of `Cc1ccc(Nc2ccc(Nc3ccc(C)cc3S(=O)(=O)O)c3c2C(=O)c2c(O)ccc(O)c2C3=O)c(S(=O)(=O)O)c1` [alizarine viridine, 2,2'-[(9,10-Dihydro-5,8-dihydroxy-9,10-dioxo-1,4-anthracenediyl)diimino]bis[5-methyl]benzenesulfonic acid], the inhibition at 30 ppm came to 2.6%.

Turning to `O=C(Nc1ccc(Cl)c2c1C(=O)c1ccccc1C2=O)c1ccccc1` [1-Benzamido-4-chloroanthraquinone, N-(4-Chloro-9,10-dihydro-9,10-dioxo-1-anthracenyl)-benzamide], the inhibition at 30 ppm stood at 8.6%.

Consider `Nc1ccc2c(c1N)C(=O)c1ccccc1C2=O` [1,2-Diaminoanthraquinone], for which the inhibition at 10 ppm is 28.9%.

Turning to `O=C(O)CN(CC(=O)O)Cc1cc2c(c(O)c1O)C(=O)c1ccccc1C2=O` [Alizarin complexone dehydrate, (3,4-dihydroxy-2-anthraquinonyl)-methyliminodiacetic acid], the inhibition at 30 ppm came out at 14.3%.

As for `COc1cc2c(cc1C)C(=O)c1ccccc1C2=O` [2-Methoxy-3-methyl-9,10-anthracenedione], the inhibition at 30 ppm was determined as 5%.

As for `Cc1ccc(Nc2ccc(Nc3ccc(C)cc3S(=O)(=O)O)c3c2C(=O)c2ccccc2C3=O)c(S(=O)(=O)O)c1` [Acid green 25, 2,2'-[(9,10-Dihydro-9,10-dioxo-1,4-anthracenediyl)-diimino]bis[5-methylbenzenesulfonic acid],di Na salt], the inhibition at 10 ppm turned out to be 38.8%.

As for `Nc1c(OCCOc2ccccc2)c(OCCOc2ccccc2)c(N)c2c1C(=O)c1ccccc1C2=O` [1,4-Diamino-2,3-bis(2-phenoxyethoxy)anthraquinone], the inhibition at 30 ppm is 7.8%.

`COc1ccc(N)c2c1C(=O)c1ccccc1C2=O` [1-Amino-4-methoxyanthraquinone]: the inhibition at 10 ppm turned out to be 57.1%.

On to `Cc1c(C)c(O)c2c(c1O)C(=O)c1ccccc1C2=O` [2,3-dimethyl-1,4-dihydroxyanthraquinone], for which the inhibition at 30 ppm worked out at 5.7%.

For `CNc1cccc2c1C(=O)c1ccccc1C2=O` [1-(Methylamino)anthraquinone], the inhibition at 10 µg/mL is 19.1%.

`Nc1cccc2c1C(=O)c1ccccc1C2=O` [1-Aminoanthraquinone]: the inhibition at 10 ppm is 28.4%.

For the compound `Cc1cc(O)c2c(c1O)C(=O)c1c(O)ccc(O)c1C2=O` [Cynodontin, 1,4,5,8-Tetrahydroxy-2-methyl-9,10-anthracenedione], the inhibition at 10 ppm is 34.4%.

Regarding `Nc1cc2c(cc1Cl)C(=O)c1ccccc1C2=O` [2-Amino-3-chloroanthraquinone], the inhibition at 30 ppm turned out to be 3.9%.

Regarding `O=C1c2ccccc2C(=O)c2c1cccc2N(NS(=O)(=O)O)S(=O)(=O)O` [1-(9,10-Dihydro-9,10-dioxo-1-anthracenyl)-1,2-hydrazinedisulfonic acid, di Na salt], the inhibition at 10 ppm is 10%.

On to `Cc1ccc2c(c1-c1c(C)ccc3c1C(=O)c1ccccc1C3=O)C(=O)c1ccccc1C2=O` [2,2'-Dimethyl-1,1'-bianthraquinone, 2,2'-Dimethyl-[1,1'-bianthracene]-9,9',10,10'-tetrone], for which the inhibition at 30 ppm amounted to 59.7%.

As for `O=C1c2ccccc2C(=O)c2c1ccc1ccccc21` [Benz[a]anthracene-7,12-dione], the inhibition at 30 ppm is 52.9%.

In the case of `O=C1c2cccc(S(=O)(=O)O)c2C(=O)c2cccc([N+](=O)[O-])c21` [5-Nitroanthraquinone-1-sulfonic acid, 9,10-Dihydro-5-nitro-9,10-dioxo-1-anthracenesulfonic acid], the inhibition at 10 ppm stood at 66%.

Take `COc1cccc2c1C(=O)c1c(O)c3c(c(O)c1C2=O)C[C@@](O)(C(=O)CO)C[C@@H]3O[C@H]1C[C@H](N)[C@H](O)[C@H](C)O1` [Adriamycin hydrochloride, 10-[(3-Amino-2,3,6-trideoxy-alpha-L-lyxo-hexopyranosyl)oxy]-7,8,9,10-tetrahydro-6,8,11-trihydroxy-8-(hydroxyacetyl)-1-methoxy-5,12-naphthacenedione hydrochloride, reference compound]: the inhibition at 30 ppm was determined as 55.7%.

As for `Cc1cc(O)c2c(c1)C(=O)c1cc(O[C@@H]3OC[C@](O)(CO)[C@H]3O)cc(O)c1C2=O` [Frangulin B, 3-(D-apio-beta-D-Furanosyloxy)-1,8-dihydroxy-6-methyl-9,10-anthracenedione], the inhibition at 30 ppm was found to be 57.1%.

As to `Nc1c(S(=O)(=O)O)cc(Nc2ccc(S(=O)(=O)O)c(Nc3nc(Cl)nc(Nc4cccc(S(=O)(=O)O)c4)n3)c2)c2c1C(=O)c1ccccc1C2=O` [Reactive blue 5, 1-Amino-4[[3-[[4-chloro-6-[(3-sulfophenyl)amino]-1,3,5-triazin-2-yl]amino]-4-sulfophenyl]amino]-9,10-dihydro-9,10-dioxo-2-anthracenesulfonic acid], the inhibition at 10 ppm turned out to be 0%.

`O=C(Nc1ccc(Nc2ccc(NC(=O)c3ccccc3)c3c2C(=O)c2ccccc2C3=O)c2c1C(=O)c1ccccc1C2=O)c1ccccc1` [4,4'-Dibenzamido-1,1'-dianthrimide, N,N'-[Iminobis(9,10-dihydro-9,10-dioxo-4,1-anthracenediyl)]bisbenzamide]: the inhibition at 30 ppm came out at 5.2%.

As to `O=C1c2ccccc2C(=O)c2c(O)c(S(=O)(=O)O)c(Oc3ccc(S(=O)(=O)O)cc3)c(O)c21` [2-Phenoxy quinizarin-3,4'-disulfonic acid, di K salt], the inhibition at 10 ppm was 28.1%.

Regarding `O=C(O)c1cc2c(cc1C(=O)O)C(=O)c1ccccc1C2=O` [9,10-Dihydro-9,10-dioxo-2,3-anthracenedicarboxylic acid], the inhibition at 30 ppm was 10%.

In the case of `CCc1ccc2c(c1)C(=O)c1ccccc1C2=O` [2-Ethylanthraquinone], the inhibition at 10 µg/mL was 57.1%.

On to `O=C1c2ccccc2C(=O)c2cc(Cl)ccc21` [2-Chloroanthraquinone], for which the inhibition at 30 ppm came out at 98.7%.

Turning to `CNc1ccc(Br)c2c1C(=O)c1ccccc1C2=O` [1-Bromo-4-(methylamino)anthraquinone], the inhibition at 30 ppm turned out to be 0%.

With `Cc1cc(O)c2c(c1)C(=O)c1cccc(O)c1C2=O` [Chrysophanic acid, 1,8-Dihydroxy-3-methylanthraquinone], the inhibition at 30 ppm amounted to 27.9%.

For the compound `CC(C)(C)C(=O)Nc1ccc2c(c1)C(=O)c1ccccc1C2=O` [2-(2,2,2-Trimethylpropionamido)anthraquinone], the inhibition at 30 ppm came to 48.1%.

The experiment is the same for the next values; noted with them: Table III, Example 3.
On to `Nc1cccc2c1C(=O)c1ccccc1C2=O` [1-Aminoanthraquinone], for which the “% inhibition of sulfide formation” value is 72%.
